How the values were obtained:
HCT116 xenograft tumors = assay: HCT116 xenograft, monomer versus dimerized peptide, peritumoral; format: in vivo, mouse; details: HCT116 s.c. in NSG mice, peritumoral injection, monomer or dimerized, n = 5
Source text: Figure 5 Dimerized PS-acet.-STAT3 peptide has improved antitumor functions. (A) The enhanced antitumor effect of the dimerized PS-acet.-STAT3 peptide is shown in HCT116 tumors grown in NSG mice (n = 5). Two-way ANOVA (Tukey’s multiple comparisons test) was used for analyzing the kinetics of tumor growth over the treatment period; ****P < 0.001; *P < 0.05. (B) The dimerized PS-acet.-STAT3 peptide downregulates pY705-STAT3 more effectively, as analyzed by immunoprecipitation and Western blotting with tumor homogenates from the tumors in A. hc, heavy chain of antibody. […] (D) quantitative real-time RT-PCR showing mRNA levels of STAT3-regulated proapoptotic and prosurvival genes in HCT116 tumor tissues treated with the indicated STAT3 peptides in A. n = 3 independent quantitative real-time RT-PCR experiments. […] Right panels show the quantified Ki-67 protein levels as well as mean of vessel diameter (data include 5 fields of view per group). […]
Mouse care and experimental procedures were performed under pathogen-free conditions in accordance with established institutional guidance and approved IACUC protocols from Research Animal Care Committee of the City of Hope. […] Tumor growth was measured by a digital caliper every other day. […] Lungs were then analyzed for immune responses by immunostaining followed by confocal imaging. […] Tumor growth was measured by a digital caliper every other day. […]

splenic CD8+ T cells = assay: CD8+ T cell activation and ELISA (IFN-γ, IL-2); format: cell-based, mouse; details: anti-CD3/CD28 activated, 20 ng/mL IL-6, 1 μM peptide, 48 hours, ELISA, n = 4
Procedure: Data are representative of 3 independent experiments (n = 3). […] Data represent 4 independent experiments (n = 4). SD is shown. One-way ANOVA; ****P < 0.001.
CD8^+ T cells were isolated from C57BL/6 mice spleens as described above. A 96-well plate (Cellstar) was precoated with 2 μg/mL anti-CD3 antibody (BioLegend, clone 145-2c11, 100331) at 4°C overnight (BioLegend), and 1–2 × 10^5 cells were seeded into each well, followed by adding 2 μg/mL soluble CD28 (BioLegend, clone 37-51, 102012) and stimulation with 20 ng/mL IL-6. PS-unacet.-STAT3, PS-STAT3-K685R, and PO- or PS-acet.-STAT3 peptides at a concentration of 1 μM were added to the cells. Peptide treatment was repeated on the following day. Control cells were treated with HBSS. After 48 hours’ treatment with peptides at 37°C, supernatants were assessed for IFN-γ and IL-2 production by R&D, Bio-Techne, kits (DY402 and DY406), according to manufacturer’s instruction.

Substance: PDIPKEEAFGK685(Ac)YCRPESQEHPC-linker-T*C*C*A*T*G*A*G*C*T*T*C*C*T*G*A*T*G*C*T [PS-acet.-STAT3 peptide]
- tumor growth (HCT116 xenograft tumors): significantly reduced
- interferon-γ (IFN-γ) and IL-2 production by CD8+ T cells (splenic CD8+ T cells): induced

From publication PMC7934871 (JCI Insight, 2021)
